Measurements reported in paper PMC4434603 (Journal of biomolecular screening, 2011).

What was measured:
[1] = biological target: T1, His-RORα-LBD (Homo sapiens, UniProt P35398); assay: HTS LOPAC AlphaScreen screen and compound response curves; assay type: biochemical; settings: CRC; for EC50: read-out: Final EC50, 50 µM top, 3-fold dilutions, 10 points, triplicate
T1 sequence (P35398 with tags, fused parts or gaps): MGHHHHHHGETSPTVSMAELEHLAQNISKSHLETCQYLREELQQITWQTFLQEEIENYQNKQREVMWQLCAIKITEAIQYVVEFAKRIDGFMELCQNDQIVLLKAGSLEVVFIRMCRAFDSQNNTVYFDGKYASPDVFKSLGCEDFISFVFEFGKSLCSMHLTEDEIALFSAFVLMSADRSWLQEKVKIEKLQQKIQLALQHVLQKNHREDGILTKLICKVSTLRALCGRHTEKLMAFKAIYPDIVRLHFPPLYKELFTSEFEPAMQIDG

[2] = biological target: T2, Biotin-PGC-1α NR1 peptide (biotin on the N-terminus); assay: AlphaScreen or HTRF
T2 peptide: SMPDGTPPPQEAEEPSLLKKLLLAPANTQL

Row | Molecule | Hill Slope [1] | EC50 [1] [nM] | EC50 [2] [nM]
1 | CC(=O)[C@H]1CC[C@H]2[C@@H]3CCC4=CC(=O)CC[C@]4(C)[C@H]3CC[C@]12C [P 0130] | 1.07 | 833 | 
2 | CCCCCCC(C)(C)c1ccc([C@@H]2C[C@H](O)CC[C@H]2CCCO)c(O)c1 [C 1112] | 1.73 | 224 | 
3 | CC(=O)[C@H]1CCC2C3CC[C@H]4C[C@H](O)CC[C@]4(C)C3CC[C@@]21C (stereo partly drawn) [P 8887] | 0.28 | 331 | 
4 | C[C@]12C=CC(=O)C=C1CC[C@@H]1C2=CC[C@]2(C)[C@@H](C(=O)CN3CCN(c4cc(N5CCCC5)nc(N5CCCC5)n4)CC3)CC[C@@H]12.O=C(O)/C=C\C(=O)O [U 5882] | 1.79 | 393 | 
5 | His-RORα-LBD (262–523) (domain or fragment) GETSPTVSMAELEHLAQNISKSHLETCQYLREELQQITWQTFLQEEIENYQNKQREVMWQLCAIKITEAIQYVVEFAKRIDGFMELCQNDQIVLLKAGSLEVVFIRMCRAFDSQNNTVYFDGKYASPDVFKSLGCEDFISFVFEFGKSLCSMHLTEDEIALFSAFVLMSADRSWLQEKVKIEKLQQKIQLALQHVLQKNHREDGILTKLICKVSTLRALCGRHTEKLMAFKAIYPDIVRLHFPPLYKELFTSEFEPAMQIDG |  |  | 36
